Laboratory results taken from patent US6653306B1, “Epoxy-steroidal aldosterone antagonist and angiotensin II antagonist combination therapy” (G.D. Searle & Co., priority 1995, dated 2003).

Assays:
rabbit aortic rings = test: Assay B: In vitro vascular smooth muscle response for AII (antagonist activity, pA2); format: cell-based; settings: Oryctolagus cuniculus, in vitro vascular smooth muscle response; two values per cell separated by / are separate determinations; read-out: Assay B pA2 (converted)
Experimental: Assay B: In Vitro Vascular Smooth Muscle-response for AII
The compounds of the invention were tested for antagonist activity in rabbit aortic rings. Male New Zealand white rabbits (2-2.5 kg) were sacrificed using an overdose of pentobarbital and exsanguinated via the carotid arteries. The thoracic aorta was removed, cleaned of adherent fat and connective tissue and then cut into 3-mm ring segments. The endothelium was removed from the rings by gently sliding a rolled-up piece of filter paper into the vessel lumen. The rings were then mounted in a water-jacketed tissue bath, maintained at 37° C., between moveable and fixed ends of a stainless steel wire with the moveable end attached to an FT03 Grass transducer coupled to a Model 7D Grass Polygraph for recording isometric force responses. The bath was filled with 20 ml of oxygenated (95% oxygen/5% carbon dioxide) Krebs solution of the following composition (mM): 130 NaCl, […], 15 KCl, 1.2 NaH2PO4, 1.2 MgSO4, 2.5 CaCl2, and 11.4 glucose. The preparations were equilibrated for one hour before approximately one gram of passive tension was placed on the rings. Angiotensin II concentration-response curves were then recorded (3×10^−10 to 1×10^−5 M). Each concentration of AII was allowed to elicit its maximal contraction, and then AII was washed out repeatedly for 30 minutes before rechallenging with a higher concentration of AII. Aorta rings were exposed to the test antagonist at […] for 5 minutes before challenging with AII. Adjacent segments of the same aorta ring were used for all concentration-response curves in the presence or absence of the test antagonist. The effectiveness of the test compound was expressed in terms of pA2 values and were calculated according to H. O. Schild [Br. J. Pharmacol, Chemother., 2,189-206 (1947)]. The pA2 value is the concentration of the antagonist which increases the EC50 value for AII by a factor of two. Each test antagonist was evaluated in aorta rings from two rabbits.

[1] = molecular target: angiotensin II AT1 receptor; test: Assay A: Angiotensin II binding activity (125I-AII displacement, rat uterine membrane preparation)
Experimental: Assay A: Antiotensin II Binding Activity
Compounds of the invention were tested for ability to bind to the smooth muscle angiotensin II receptor using a rat uterine membrane preparation. […] Rat uterine membranes were prepared from fresh tissue. All procedures were carried out at 4° C. Uteri were stripped of fat and homogenized in phosphate-buffered saline at pH 7.4 containing 5 mM EDTA. The homogenate was centrifuged at 1500×g for 20 min., and the supernatant was recentrifuged at 100,000×g for 60 min. The pellet was resuspended in buffer consisting of 2 mM EDTA and 50 mM Tris-HCl (pH 7.5) to a final protein concentration of 4 mg/ml. […] The reaction was initiated by the addition of membrane protein and the mixture was incubated at 25° C. for 60 min. The incubation was terminated with ice-cold 50 mM Tris-HCl (pH 7.5) and the mixture was filtered to separate membrane-bound labelled peptide from the free ligand. The incubation tube and filter were washed with ice-cold buffer. Filters were assayed for radioactivity in a Micromedic gamma counter.
Nonspecific binding was defined as binding in the presence of 10 μM of unlabelled AII. Specific binding was calculated as total binding minus nonspecific binding. […] Binding data were analyzed by a nonlinear least-squares curve fitting program.

pressor response to AII = test: Assay C: In vivo intragastric pressor assay response for AII antagonists; design: species or system rat; settings: dose 3 mg/kg, intragastric, or intraduodenal for examples listed; for inhibition at 3 mg/kg: Rattus norvegicus
Experimental: Assay C: In Vivo Intragastric Pressor Assay Response for AII Antagonists
Male Sprague-Dawley rats weighing 225-300 grams were anesthetized with methohexital (30 mg/kg, i.p.) and catheters were implanted into the femoral artery and vein. The catheters were tunneled subcutaneously to exit dorsally, posterior to the head and between the scapulae. The catheters were filled with heparin (1000 units/ml of saline). The rats were returned to their cage and allowed regular rat chow and water ad libitum. After full recovery from surgery (3-4 days), rats were placed in Lucite holders and the arterial line was connected to a pressure transducer. Arterial pressure was recorded on a Gould polygraph (mmHg). Angiotensin II was administered as a 30 ng/kg bolus via the venous catheter delivered in a 50 μl volume with a 0.2 ml saline flush. The pressor response in mm Hg was measured by the differer.-:e from pre-injection arterial pressure to the maximum pressure achieved. The AII injection was repeated every 10 minutes until three consecutive injections yielded responses within 4 mmHg of each other. These three responses were then averaged and represented the control response to AII. The test compound was suspended in 0.5% methylcellulose in water and was administered by gavage. The volume administered was 2 ml/kg body weight. The standard dose was 3 mg/kg. Angiotensin II bolus injections were given at 30, 45, 60, 75, 120, 150, and 180 minutes after gavage. The pressor response to AII was measured at each time point. The rats were then returned to their cage for future testing. A minimum of 3 days was allowed between tests. Percent inhibition was calculated for each time point following gavage by the following formula:
[(Control Response—Response at time point)/Control Response]×100.

Row | IC50 [1] [nM] | SMILES | Kb (rabbit aortic rings) [nM] | inhibition at 3 mg/kg (pressor response to AII) [%] | Assay C Duration (pressor response to AII) [min]
1 | 480 | CCCCc1nc(CCc2ccccc2)n(Cc2ccc(-c3ccccc3-c3nnn[nH]3)cc2)n1 [Compound 25] | 158 |  | 
2 | 240 | CCCCc1nc(Cc2ccc(-c3ccccc3C(=O)O)cc2)n(CCCC)n1 [Compound 126] | 63.1 |  | 
3 | 280 | CCCCc1nn(CC(OCc2ccccc2)c2ccccc2)c(=O)n1Cc1ccc(-c2ccccc2-c2nn[nH]n2)cc1 (stereo not drawn) [Compound 97] | 20 |  | 
4 | 9 | CCCCc1nn(CC(=O)OCC)c(=O)n1Cc1ccc(-c2ccccc2-c2nn[nH]n2)cc1 [Compound 86] | 15.8 |  | 
5 | 26 | CCCCc1nc(CC23CC4CC(CC(C4)C2)C3)nn1Cc1ccc(-c2ccccc2-c2nnn[nH]2)cc1 [Compound 62] | 2.04 |  | 
6 | 12000 | CCCCc1ncn(Cc2ccc(-c3ccccc3C(=O)O)cc2)n1 [Compound 19] | 6610 |  | 
7 | 1400 | CCCCc1nc(CN)n(Cc2ccc(-c3ccccc3-c3nnn[nH]3)cc2)n1 [Compound 36] | 1200 |  | 
8 | 8.7 | CCCCc1nc(C(F)(F)Cc2ccccc2)nn1Cc1ccc(-c2ccccc2-c2nnn[nH]2)cc1 [Compound 51] | 4.07 |  | 
9 | 22 | CCCCc1nn(CC(O)c2cc(OC)ccc2OC)c(=O)n1Cc1ccc(-c2ccccc2-c2nn[nH]n2)cc1 (stereo not drawn) [Compound 98] | 7.94 |  | 
10 | 17 | CCCCn1nc(CCc2ccccc2)nc1Cc1ccc(-c2ccccc2-c2nnn[nH]2)nc1 [Compound 151] | 17.4 |  | 
11 | 83 | CCCCc1nc(CCCN)nn1Cc1ccc(-c2ccccc2-c2nnn[nH]2)cc1 [Compound 72] | 776 |  | 
12 | 12 | CCCCc1cn(CCCC)c(=O)n1Cc1ccc(-c2ccccc2-c2nnn[nH]2)cc1 [Compound 132] | 2.51 |  | 
13 | 340 | CCCCc1nc(CC(OCC)OCC)n(Cc2ccc(-c3ccccc3-c3nnn[nH]3)cc2)n1 [Compound 37] | 126 |  | 
14 | 54 | CCCCc1nc(CCC(=O)O)n(Cc2ccc(-c3ccccc3-c3nnn[nH]3)cc2)n1 [Compound 64] | 100 |  | 
15 | 15000 | CCCCc1nc(C)n(Cc2ccc(-c3ccccc3C(=O)O)cc2)n1 [Compound 77] | 1700 |  | 
16 | 970 | CCCCc1ncnn1Cc1ccc(-c2ccccc2C(=O)O)cc1 [Compound 18] | 724 |  | 
17 | 410 | CCCn1nc(C(C)(F)F)nc1Cc1ccc(-c2ccccc2-c2nnn[nH]2)nc1 [Compound 165] | 126 |  | 
18 | 5400 | CCCCc1nc(CC)n(Cc2ccc(-c3ccccc3C(=O)O)cc2)n1 [Compound 76] | 3020 |  | 
19 | 12000 | CCCCc1nc(Cc2ccc(-c3ccccc3C(=O)O)cc2)nn1CCCC [Compound 127] | 11000 |  | 
20 | 88 | CCCCn1nc(C(OC(C)C)OC(C)C)nc1Cc1ccc(-c2ccccc2-c2nnn[nH]2)nc1 [Compound 178] | 28.8 |  | 
21 | 150 | CCCCc1nc(CCCC)n(Cc2ccc(-c3cnccc3-c3nnn[nH]3)cc2)n1 [Compound 244] | 67.6 |  | 
22 | 2000 | CCCCc1nc2c(OCC)nnc(OCC)c2n1Cc1ccc(-c2ccccc2-c2nnn[nH]2)cc1 [Compound 112] | 6310 |  | 

Row | IC50 [1] [nM] | SMILES | Kb (rabbit aortic rings) [nM] | inhibition at 3 mg/kg (pressor response to AII) [%] | Assay C Duration (pressor response to AII) [min]
23 | 460 | CCCCc1nc(-c2ccccc2)n(Cc2ccc(-c3ccccc3-c3nnn[nH]3)cc2)n1 [Compound 22] | 251 |  | 
24 | 21 | CCCCc1nn(CC(=O)c2cc(OC)ccc2OC)c(=O)n1Cc1ccc(-c2ccccc2-c2nn[nH]n2)cc1 [Compound 96] | 10 |  | 
25 |  | CCCCCc1nc(CCCCC)n(Cc2ccc(-c3ccccc3-c3nnn[nH]3)cc2)n1 [Compound 13] | 2 |  | 
26 | 54 | CCCCc1nc(C(=O)Cc2ccccc2)nn1Cc1ccc(-c2ccccc2-c2nnn[nH]2)cc1 [Compound 50] | 19.5 |  | 
27 | 6 | CCCc1nc(CCC)n(Cc2ccc(-c3ccccc3-c3nnn[nH]3)cc2)n1 [Compound 12] | 2.19 |  | 
28 |  | CCCCc1nc2c(O)nncc2n1Cc1ccc(-c2ccccc2-c2nnn[nH]2)cc1 [Compound 116] | 316 |  | 
29 |  | CCCCc1nc2cnncc2n1Cc1ccc(-c2ccccc2-c2nnn[nH]2)cc1 [Compound 117] | 316 |  | 
30 | 25 | CCCCc1nc(-c2ccccc2Cl)nn1Cc1ccc(-c2ccccc2-c2nnn[nH]2)nc1 [Compound 267] |  | 25 | >180
31 | 4.1 | CCCCc1nc(C(=O)N(C)C(C)(C)C)n(Cc2ccc(-c3ccccc3-c3nnn[nH]3)nc2)n1 [Compound 256] |  | 30 | >180
32 | 5 | CCCCc1cn(CCc2cccs2)c(=O)n1Cc1ccc(-c2ccccc2-c2nnn[nH]2)nc1 [Compound 209] |  | 25 | >180
33 |  | CCCCc1nc2c(O)nnc(CCC)c2n1Cc1ccc(-c2ccccc2-c2nn[nH]n2)cc1 [Compound 114] | 398 |  | 
34 | 9.2 | CCCCc1cn(CCC(C)(C)C)c(=O)n1Cc1ccc(-c2ccccc2-c2nnn[nH]2)nc1 [Compound 203] |  | 50 | >180
35 | 43 | CCCCc1nc(CC(C)(C)C)n(Cc2ccc(-c3ccccc3-c3nnn[nH]3)nc2)n1 [Compound 250] |  | 0 | 
36 | 38 | CCCc1cn(CCC)c(=O)n1Cc1ccc(-c2ccccc2-c2nnn[nH]2)nc1 [Compound 186] |  | 25 | 180
37 | 14 | CCCCc1cn(CCCC)c(=O)n1Cc1ccc(-c2ccccc2-c2nnn[nH]2)cn1 [Compound 223] |  | 20 | >180
38 | 12 | CCCCc1cn(CC(C)(C)C)c(=O)n1Cc1ccc(-c2ccccc2-c2nnn[nH]2)nc1 [Compound 202] |  | 65 | >180
39 | 21 | CCCCn1nc(C2OCC(C)(C)CO2)nc1Cc1ccc(-c2ccccc2-c2nnn[nH]2)nc1 [Compound 181] |  | 20 | 180
40 | 81 | CCCCn1cc(C2CCCCC2)n(Cc2ccc(-c3ccccc3-c3nnn[nH]3)nc2)c1=O [Compound 191] |  | 10 | 180
41 | 16 | CCCCc1cn(CC(CC)CC)c(=O)n1Cc1ccc(-c2ccccc2-c2nnn[nH]2)nc1 [Compound 204] |  | 75 | >180
42 | 14 | CCCCc1cn(-c2ccccc2CC)c(=O)n1Cc1ccc(-c2ccccc2-c2nnn[nH]2)cc1 [Compound 271] |  | 20 | 
43 | 20 | CCCCn1nc(C2OCCCO2)nc1Cc1ccc(-c2ccccc2-c2nnn[nH]2)nc1 [Compound 180] |  | 25 | 180
